Test results from PubChem BioAssay (NCI).
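Assay format: 96-well plates, 48-hour exposure. At the TGI there is no net growth.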

What was measured:
Assay in all cases: growth of human tumour cells (NCI), 48 h
[1] = tested on: 786-0 renal
[2] = tested on: A498 renal
[3] = tested on: A549 NSCLC
[4] = tested on: ACHN renal
[5] = tested on: CAKI-1 renal
[6] = tested on: CCRF-CEM leukemia
[7] = tested on: COLO 205 colon
[8] = tested on: DU-145 prostate
[9] = tested on: EKVX NSCLC
[10] = tested on: HCC-2998 colon
[11] = tested on: HCT-116 colon
[12] = tested on: HCT-15 colon
[13] = tested on: HL-60(TB) leukemia
[14] = tested on: HOP-62 NSCLC
[15] = tested on: HOP-92 NSCLC
[16] = tested on: HS 578T breast
[17] = tested on: HT29 colon
[18] = tested on: IGROV1 ovarian
[19] = tested on: KM12 colon
[20] = tested on: LOX IMVI melanoma
[21] = tested on: M14 melanoma
[22] = tested on: MALME-3M melanoma
[23] = tested on: MCF7 breast
[24] = tested on: MDA-MB-231 breast
[25] = tested on: MDA-MB-435
[26] = tested on: MDA-N
[27] = tested on: MOLT-4 leukemia
[28] = tested on: NCI-H226 lung
[29] = tested on: NCI-H23 lung
[30] = tested on: NCI-H460 lung
[31] = tested on: NCI-H522 lung
[32] = tested on: NCI/ADR-RES ovarian
[33] = tested on: OVCAR-3 ovarian
[34] = tested on: OVCAR-4 ovarian
[35] = tested on: OVCAR-5 ovarian
[36] = tested on: OVCAR-8 ovarian
[37] = tested on: PC-3 prostate
[38] = tested on: RPMI-8226 leukemia
[39] = tested on: RXF 393 renal
[40] = tested on: SF-268 CNS
[41] = tested on: SF-295 CNS
[42] = tested on: SF-539 CNS
[43] = tested on: SK-MEL-2 melanoma
[44] = tested on: SK-MEL-28 melanoma
[45] = tested on: SK-MEL-5 melanoma
[46] = tested on: SK-OV-3 ovarian
[47] = tested on: SNB-19 CNS
[48] = tested on: SNB-75 CNS
[49] = tested on: SR leukemia
[50] = tested on: SW-620 colon
[51] = tested on: T-47D breast
[52] = tested on: TK-10 renal
[53] = tested on: U251 CNS
[54] = tested on: UACC-257 melanoma
[55] = tested on: UO-31 renal

CCC(=O)COc1ccc(NC(NC(=O)C(C(F)(F)F)C(F)(F)F)(C(F)(F)F)C(F)(F)F)cc1
TGI [1]: 61.7 µM | TGI [2]: > 100 µM | TGI [3]: > 100 µM | TGI [4]: > 100 µM | TGI [5]: 94.1 µM | TGI [6]: 61.8 µM | TGI [7]: 43.7 µM | TGI [8]: > 100 µM | TGI [9]: > 100 µM | TGI [10]: > 100 µM | TGI [11]: 67.6 µM | TGI [12]: > 100 µM | TGI [13]: 56.1 µM | TGI [14]: > 100 µM | TGI [15]: > 100 µM | TGI [16]: > 100 µM | TGI [17]: 70.3 µM | TGI [18]: 44.9 µM | TGI [19]: > 100 µM | TGI [20]: 74.1 µM | TGI [21]: > 100 µM | TGI [22]: 77.7 µM | TGI [23]: > 100 µM | TGI [24]: 54.2 µM | TGI [25]: > 100 µM | TGI [26]: 83.9 µM | TGI [27]: 44.8 µM | TGI [28]: 47.6 µM | TGI [29]: > 100 µM | TGI [30]: > 100 µM | TGI [31]: 35.5 µM | TGI [32]: 42.7 µM | TGI [33]: > 100 µM | TGI [34]: > 100 µM | TGI [35]: > 100 µM | TGI [36]: 62.8 µM | TGI [37]: > 100 µM | TGI [38]: 52.8 µM | TGI [39]: 48.7 µM | TGI [40]: 78.1 µM | TGI [41]: > 100 µM | TGI [42]: 55.2 µM | TGI [43]: 95.5 µM | TGI [44]: > 100 µM | TGI [45]: > 100 µM | TGI [46]: > 100 µM | TGI [47]: > 100 µM | TGI [48]: 75.3 µM | TGI [49]: 37.1 µM | TGI [50]: > 100 µM | TGI [51]: 68.8 µM | TGI [52]: > 100 µM | TGI [53]: > 100 µM | TGI [54]: > 100 µM | TGI [55]: > 100 µM
